Source: ChEMBL document CHEMBL1132543, “N-deacetyl-N-aminoacylthiocolchicine derivatives: synthesis and biological evaluation on MDR-positive and MDR-negative human cancer cell lines” (J Med Chem, 1999)

Assays:
MCF7 = test: Anti tumor activity on human breast cancer cell line MDR-positive MCF-7 ADRr after 72 hours of treatment; assay type: functional, cell-based; conditions: MCF7, 72 h
MDA-MB-231 = test: cells; assay type: functional, cell-based; conditions: Homo sapiens, MDA-MB-231, 72 h
Description: Anti tumor activity on human breast cancer cell line MDR-negative MDA-MB 231 after 72 hours of treatment

| Compound | IC50 (MCF7) [nM] | IC50 (MDA-MB-231) [nM] |
| --- | --- | --- |
| COc1cc2c(c(OC)c1OC)-c1ccc(SC)c(=O)cc1[C@@H](NC(=O)[C@H](C)N)CC2 | 10000 | 90 |
| COc1cc2c(c(OC)c1OC)-c1ccc(SC)c(=O)cc1[C@@H](NC(=O)CN)CC2 | 10000 | 7.6 |
| COc1cc2c(c(OC)c1OC)-c1ccc(SC)c(=O)cc1[C@@H](NC(=O)[C@@H](C)N)CC2 | 12000 | 150 |
| COc1cc2c(c(OC)c1OC)-c1ccc(SC)c(=O)cc1[C@@H](NC(=O)CNC(=O)C(F)(F)F)CC2 | 12000 | 6 |
| COc1cc2c(c(OC)c1OC)-c1ccc(SC)c(=O)cc1[C@@H](NC(=O)[C@@H](N)c1ccccc1)CC2.COc1cc2c(c(OC)c1OC)-c1ccc(SC)c(=O)cc1[C@@H](NC(=O)[C@H](N)c1ccccc1)CC2 | 1700 | 3 |
| COc1cc2c(c(OC)c1OC)-c1ccc(SC)c(=O)cc1[C@@H](NC(=O)[C@@H](NC(=O)C(F)(F)F)c1ccccc1)CC2.COc1cc2c(c(OC)c1OC)-c1ccc(SC)c(=O)cc1[C@@H](NC(=O)[C@H](NC(=O)C(F)(F)F)c1ccccc1)CC2 | 1500 | 24 |
| COc1cc2c(c(OC)c1OC)-c1ccc(SC)c(=O)cc1[C@@H](NC(=O)[C@@H](C)N)CC2.COc1cc2c(c(OC)c1OC)-c1ccc(SC)c(=O)cc1[C@@H](NC(=O)[C@H](C)N)CC2 | 800 | 19 |
| COc1cc2c(c(OC)c1OC)-c1ccc(SC)c(=O)cc1[C@@H](NC(=O)[C@@H](CCSC)NC(=O)C(F)(F)F)CC2.COc1cc2c(c(OC)c1OC)-c1ccc(SC)c(=O)cc1[C@@H](NC(=O)[C@H](CCSC)NC(=O)C(F)(F)F)CC2 | 10000 | 37 |
| COc1cc2c(c(OC)c1OC)-c1ccc(SC)c(=O)cc1[C@@H](NC(=O)[C@@H](N)CCSC)CC2.COc1cc2c(c(OC)c1OC)-c1ccc(SC)c(=O)cc1[C@@H](NC(=O)[C@H](N)CCSC)CC2 | 20000 | 35 |
| COc1cc2c(c(OC)c1OC)-c1ccc(SC)c(=O)cc1[C@@H](NC(=O)[C@@H](C)NC(=O)C(F)(F)F)CC2.COc1cc2c(c(OC)c1OC)-c1ccc(SC)c(=O)cc1[C@@H](NC(=O)[C@H](C)NC(=O)C(F)(F)F)CC2 | 2100 | 12 |
| COc1cc2c(c(OC)c1OC)-c1ccc(SC)c(=O)cc1[C@@H](NC(=O)C(F)(F)F)CC2 | 35 | 1.3 |
| COc1cc2c(c(OC)c1OC)-c1ccc(OC)c(=O)cc1[C@@H](NC(C)=O)CC2 [COLCHICINE] | – | 1.8 |
